In ChEMBL document CHEMBL2069221, “Hybrid molecules of carvacrol and benzoyl urea/thiourea with potential applications in agriculture and medicine” (Bioorg Med Chem Lett, 2012):
Values after ≈ are worked out from the molar mass of the structure shown.

Tests used:
[1] = tested on: Fusarium oxysporum; experiment: Antifungal activity against Fusarium oxysporum after 48 hrs by microbroth dilution method; type: functional
[2] = Toxicity in RBC assessed as induction of hemolysis; type: cell-based, Erythrocyte; settings: red blood cells (RBC)
[3] = tested on: Candida albicans; experiment: Antifungal activity against Candida albicans NCIM 3471 after 48 hrs by microbroth dilution method; type: functional
[4] = tested on: Cryptococcus neoformans; experiment: Antifungal activity against Cryptococcus neoformans NCIM 3378 after 48 hrs by microbroth dilution method; type: functional
[5] = Toxicity in RBC assessed as induction of hemolysis at MIC; type: cell-based, Erythrocyte; settings: red blood cells (RBC); read-out: Activity
[6] = tested on: Candida albicans; experiment: Antifungal activity against Candida albicans after 48 hrs by microbroth dilution method; type: functional
[7] = Antifungal activity against Pichia membranifaciens after 48 hrs by microbroth dilution method; type: functional
[8] = tested on: Drechslera; experiment: Antifungal activity against Dreschlera oryzae after 48 hrs by microbroth dilution method; type: functional
[9] = tested on: Cryptococcus neoformans; experiment: Antifungal activity against Cryptococcus neoformans NCIM 3541 after 48 hrs by microbroth dilution method; type: functional
[10] = tested on: Nakaseomyces glabratus; experiment: Antifungal activity against Candida glabrata NCIM 3237 after 48 hrs by microbroth dilution method; type: functional
[11] = tested on: Candida albicans; experiment: Antifungal activity against Candida albicans NCIM 3557 after 48 hrs by microbroth dilution method; type: functional
[12] = tested on: Pyricularia grisea; experiment: Antifungal activity against Magnaporthe grisea after 48 hrs by microbroth dilution method; type: functional
[13] = tested on: Debaryomyces hansenii; experiment: Antifungal activity against Debaryomyces hansenii after 48 hrs by microbroth dilution method; type: functional
[14] = tested on: Cryptococcus neoformans; experiment: Antifungal activity against Cryptococcus neoformans after 48 hrs by microbroth dilution method; type: functional
[15] = tested on: Cryptococcus neoformans; experiment: Antifungal activity against Cryptococcus neoformans NCIM 3542 after 48 hrs by microbroth dilution method; type: functional
[16] = tested on: Dysdercus koenigii; experiment: Insecticidal activity against 5th instar nymph of Dysdercus koenigii assessed as mortality per nymph; type: functional

## Cc1cc(NC(=O)NC(=O)c2ccc(F)cc2)c(C(C)C)cc1O
[1]
  MIC: > 512 µg/mL
[2]
  HC50: > 1000 µg/mL
[3]
  GI: 32 µg/mL
[4]
  GI: 16 µg/mL
[5]
  hemolysis: < 2%
[6]
  GI: 16 µg/mL
[7]
  MIC: > 512 µg/mL
[8]
  MIC: > 512 µg/mL
[9]
  GI: <4 µg/mL
[10]
  GI: 16 µg/mL
[11]
  GI: >512 µg/mL
[12]
  MIC: > 512 µg/mL
[13]
  MIC: > 512 µg/mL
[14]
  GI: >512 µg/mL
[15]
  GI: 16 µg/mL
[16]
  LD50: 14.9 µg

## Cc1ccc(C(C)C)cc1O [CARVACROL]
[1]
  MIC: 64 µg/mL (≈ 426 µM)
[2]
  HC50: 250 µg/mL
[3]
  GI: 256 µg/mL
[4]
  GI: 128 µg/mL
[6]
  GI: 128 µg/mL
[7]
  MIC: 128 µg/mL (≈ 852 µM)
[8]
  MIC: 64 µg/mL (≈ 426 µM)
[9]
  GI: 128 µg/mL
[10]
  GI: 128 µg/mL
[11]
  GI: 128 µg/mL
[12]
  MIC: 128 µg/mL (≈ 852 µM)
[13]
  MIC: 128 µg/mL (≈ 852 µM)
[14]
  GI: 128 µg/mL
[15]
  GI: 128 µg/mL
[16]
  LD50: 33.3 µg

## Cc1cc(NC(=O)NC(=O)c2ccccc2Cl)c(C(C)C)cc1O
[1]
  MIC: 512 µg/mL (≈ 1480 µM)
[2]
  HC50: > 1000 µg/mL
[3]
  GI: >512 µg/mL
[4]
  GI: 128 µg/mL
[5]
  hemolysis: < 2%
[6]
  GI: 256 µg/mL
[7]
  MIC: 256 µg/mL (≈ 738 µM)
[8]
  MIC: 256 µg/mL (≈ 738 µM)
[9]
  GI: 256 µg/mL
[10]
  GI: >512 µg/mL
[11]
  GI: 128 µg/mL
[12]
  MIC: > 512 µg/mL
[13]
  MIC: 128 µg/mL (≈ 369 µM)
[14]
  GI: 256 µg/mL
[15]
  GI: 128 µg/mL
[16]
  LD50: 16.4 µg

## Cc1cc(NC(=O)NC(=O)c2ccccc2)c(C(C)C)cc1O
[1]
  MIC: > 512 µg/mL
[2]
  HC50: > 1000 µg/mL
[3]
  GI: >512 µg/mL
[4]
  GI: >512 µg/mL
[5]
  hemolysis: < 2%
[6]
  GI: >512 µg/mL
[7]
  MIC: > 512 µg/mL
[8]
  MIC: > 512 µg/mL
[9]
  GI: >512 µg/mL
[10]
  GI: >512 µg/mL
[11]
  GI: 512 µg/mL
[12]
  MIC: > 512 µg/mL
[13]
  MIC: > 512 µg/mL
[14]
  GI: >512 µg/mL
[15]
  GI: 256 µg/mL
[16]
  LD50: 21.5 µg

## Cc1cc(NC(=O)NC(=O)c2ccccc2F)c(C(C)C)cc1O
[1]
  MIC: > 512 µg/mL
[2]
  HC50: > 1000 µg/mL
[3]
  GI: 32 µg/mL
[4]
  GI: 16 µg/mL
[5]
  hemolysis: < 2%
[6]
  GI: 16 µg/mL
[7]
  MIC: > 512 µg/mL
[8]
  MIC: > 512 µg/mL
[9]
  GI: <4 µg/mL
[10]
  GI: 16 µg/mL
[11]
  GI: >512 µg/mL
[12]
  MIC: > 512 µg/mL
[13]
  MIC: > 512 µg/mL
[14]
  GI: >512 µg/mL
[15]
  GI: 16 µg/mL
[16]
  LD50: 12.5 µg

## Cc1cc(NC(=S)NC(=O)c2ccc(Cl)cc2)c(C(C)C)cc1O
[1]
  MIC: 128 µg/mL (≈ 353 µM)
[2]
  HC50: > 1000 µg/mL
[3]
  GI: 32 µg/mL
[4]
  GI: 32 µg/mL
[5]
  hemolysis: < 2%
[6]
  GI: 16 µg/mL
[7]
  MIC: 512 µg/mL (≈ 1410 µM)
[8]
  MIC: > 512 µg/mL
[9]
  GI: 8 µg/mL
[10]
  GI: 32 µg/mL
[11]
  GI: 64 µg/mL
[12]
  MIC: 256 µg/mL (≈ 705 µM)
[13]
  MIC: 256 µg/mL (≈ 705 µM)
[14]
  GI: 64 µg/mL
[15]
  GI: 32 µg/mL
[16]
  LD50: 20.8 µg

## C[C@@H]1[C@H](O)[C@@H](C)/C=C/C=C/C=C/C=C/C=C/C=C/C=C/[C@H](O[C@@H]2O[C@H](C)[C@@H](O)[C@H](N)[C@@H]2O)C[C@@H]2O[C@](O)(C[C@@H](O)C[C@@H](O)[C@H](O)CC[C@@H](O)C[C@@H](O)CC(=O)O[C@H]1C)C[C@H](O)[C@H]2C(=O)O [AMPHOTERICIN B]
[2]
  HC50: 8 µg/mL
